According to patent US20060069132A1, “Azolecarboxamide herbicides” (priority 2004, published 2006):

Tests used:
velvetleaf = assay: Test B pre-/postemergence herbicide test; format: in vivo, Abutilon theophrasti; settings: for Velvetleaf plant response rating: postemergence
How it was run: (§1)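 Response was scored visually 13 to 15 days after treatment against untreated greenhouse controls, 0 meaning no effect and 100 complete control. Formulations (solvent mixture plus surfactant) went onto soil after planting, onto foliage of 1- to 4-leaf plants, and onto 2-leaf plants in a flooded paddy set including rice and barnyardgrass.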

giant foxtail = assay: Test B pre-/postemergence herbicide test; format: in vivo, Setaria faberi; settings: for Foxtail, Giant plant response rating: postemergence
How it was run: as §1

large crabgrass = assay: Test B pre-/postemergence herbicide test; format: in vivo, Digitaria sanguinalis; settings: for Crabgrass, Large plant response rating: postemergence
How it was run: as §1

rice [1] = assay: Test B flooded paddy test; format: in vivo, Oryza sativa; settings: 1000 g ai/ha, scale 0 to 100 (0 no effect, 100 complete control)
How it was run: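 Postemergence plants were sprayed with formulated test chemicals at 2 to 18 cm height (1- to 4-leaf stage); paddy species were grown to the 2-leaf stage. After 13 to 15 days in a greenhouse, injury was rated visually against untreated controls on a 0–100 scale (0 = no effect, 100 = complete control).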

blackgrass = assay: Test B postemergence herbicide test; format: in vivo, Alopecurus myosuroides; settings: postemergence, visual rating, scale 0 (no effect) to 100 (complete control)
How it was run: (§2)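 Visual ratings, 0 (no effect) to 100 (complete control), made versus controls after 13–15 d greenhouse. Paddy plants treated at 2-leaf stage; postemergence plants at 1- to 4-leaf stage, 2–18 cm tall.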

[2] = test system: smallflower umbrella sedge; assay: Test C flooded paddy test; format: in vivo, Cyperus difformis
rice [3] = assay: Test B pre-/postemergence herbicide test; format: in vivo, Oryza sativa; settings: 0 = no effect, 100 = complete control, preemergence
How it was run: as §1

barnyardgrass [4] = assay: Test C flooded paddy test; format: in vivo, Echinochloa crus-galli
How it was run: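 Injury scored visually against controls on a 0 (no effect) to 100 (complete control) scale, 12 to 14 days after treatment in greenhouse. Flooded paddy plants treated at 2-leaf stage; postemergence plants at 1- to 4-leaf stage, 2 to 18 cm tall.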

barnyardgrass [5] = assay: Test B flooded paddy test; format: in vivo, Echinochloa crus-galli; settings: 1000 g ai/ha, scale 0 to 100 (0 no effect, 100 complete control)
How it was run: as §2

wheat = assay: Test B postemergence herbicide test; format: in vivo, Triticum aestivum; parameters: key to Wheat plant response rating: 0 = no effect, 100 = complete control; settings: postemergence
How it was run: as §2

barnyardgrass [6] = assay: Test B pre-/postemergence herbicide test; format: in vivo, Echinochloa crus-galli; settings: for Barnyardgrass plant response rating: postemergence, scale 0 (no effect) to 100 (complete control)
How it was run: (§3)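 Visual rating, 0 (no effect) to 100 (complete control), versus untreated controls after 13–15 d in greenhouse. Pre- and postemergence applications (postemergence plants 2–18 cm, 1–4 leaves); flooded paddy arm at 2-leaf stage. Compounds in non-phytotoxic solvent plus surfactant.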

morningglory = assay: Test B pre-/postemergence herbicide test; format: in vivo, Ipomoea coccinea; settings: for Morningglory plant response rating: postemergence
How it was run: as §3

pigweed = assay: Test B pre-/postemergence herbicide test; format: in vivo, Amaranthus retroflexus; settings: for Pigweed plant response rating: postemergence
How it was run: as §1

lambsquarters = assay: Test B pre-/postemergence herbicide test; format: in vivo, Chenopodium album; settings: for Lambsquarters plant response rating: postemergence
How it was run: as §1

ducksalad [7] = assay: Test B flooded paddy test; format: in vivo, Heteranthera limosa; settings: 1000 g ai/ha, scale 0 to 100 (0 no effect, 100 complete control)
How it was run: as §2

rice [8] = assay: Test C flooded paddy test; format: in vivo, Oryza sativa
How it was run: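 Postemergence sprays applied to plants 2 to 18 cm tall (1- to 4-leaf stage); paddy species grown to 2-leaf stage under flooding. After 12 to 14 days in greenhouse, visual rating versus untreated controls on 0–100 scale (0 no effect, 100 complete control).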

cocklebur = assay: Test B pre-/postemergence herbicide test; format: in vivo, Xanthium strumarium; settings: for Cocklebur plant response rating: postemergence, scale 0 (no effect) to 100 (complete control)
How it was run: as §3

wild oat = assay: Test B postemergence herbicide test; format: in vivo, Avena fatua; settings: postemergence
How it was run: as §2

Surinam grass = assay: Test B pre-/postemergence herbicide test; format: in vivo, Urochloa decumbens; settings: for Surinam Grass plant response rating: postemergence
How it was run: as §1

corn = assay: Test B pre-/postemergence herbicide test; format: in vivo, Zea mays; settings: for Corn plant response rating: postemergence
How it was run: as §1

[9] = test system: small flower umbrella sedge; assay: Test B flooded paddy test; format: in vivo, Cyperus difformis; settings: 1000 g ai/ha, scale 0 to 100 (0 no effect, 100 complete control)
How it was run: as §2

ducksalad [10] = assay: Test C flooded paddy test; format: in vivo, Heteranthera limosa
[11] = 125 g ai/ha, 0 = no effect, 100 = complete control, preemergence
[12] = 500 g ai/ha, visual rating, 0 = no effect, 100 = complete control, preemergence
[13] = 125 g ai/ha, visual rating, scale 0 (no effect) to 100 (complete control)
[14] = 500 g ai/ha, scale 0 to 100, 0 is no effect, 100 is complete control
[15] = 125 g ai/ha, scale 0 to 100 (0 no effect, 100 complete control)
[16] = 250 g ai/ha, scale of 0 to 100, 0 is no effect, 100 is complete control
[17] = 500 g ai/ha, visual rating after 12 to 14 days, scale 0 to 100 (0 no effect, 100 complete control)

## CCn1nc(C(C)(C)C)cc1C(=O)Nc1cncc(C(=O)N2CC=CC2)c1 [Compound 260]
velvetleaf; [11]
  Velvetleaf plant response rating (0 to 100 scale): 0
velvetleaf; [12]
  Plant response rating, Velvetleaf: 10
velvetleaf; [13]
  Velvetleaf plant response rating: 0
velvetleaf; [14]
  Velvetleaf plant response rating: 20
Giant foxtail; [11]
  Foxtail, Giant plant response rating (0 to 100 scale): 0
Giant foxtail; [12]
  Plant response rating, Foxtail, Giant: 30
Giant foxtail; [13]
  Foxtail, Giant plant response rating: 0
Giant foxtail; [14]
  Foxtail, Giant plant response rating: 0
Large crabgrass; [11]
  Crabgrass, Large plant response rating (0 to 100 scale): 0
Large crabgrass; [13]
  Crabgrass, Large plant response rating: 0
Large crabgrass; [14]
  Crabgrass, Large plant response rating: 10
Rice [1]
  Rice plant response rating: 70
blackgrass; 125 g ai/ha
  Blackgrass plant response rating: 10
blackgrass; 500 g ai/ha
  Blackgrass plant response rating: 10
[2]; 62 g ai/ha, scale 0 to 100
  Sedge, Umbrella plant response rating: 0
[2]; [15]
  Sedge, Umbrella plant response rating: 40
[2]; [16]
  Sedge, Umbrella plant response rating: 65
[2]; [17]
  Plant response rating, Sedge, Umbrella: 65
Rice [3]; 125 g ai/ha
  Rice plant response rating (0 to 100 scale): 0
Rice [3]; 500 g ai/ha, visual rating
  Plant response rating, Rice: 30
Barnyardgrass [4]; 62 g ai/ha, scale 0 to 100 (0 no effect, 100 complete control)
  Barnyardgrass plant response rating: 0
Barnyardgrass [4]; [15]
  Barnyardgrass plant response rating: 0
Barnyardgrass [4]; [16]
  Barnyardgrass plant response rating: 20
Barnyardgrass [4]; [17]
  Plant response rating, Barnyardgrass: 35
Barnyardgrass [5]
  Barnyardgrass plant response rating: 60
wheat; [13]
  Wheat plant response rating: 20
wheat; [14]
  Wheat plant response rating: 40
Barnyardgrass [6]; [11]
  Barnyardgrass plant response rating (0 to 100 scale): 0
Barnyardgrass [6]; [12]
  Plant response rating, Barnyardgrass: 70
Barnyardgrass [6]; 125 g ai/ha, visual rating
  Barnyardgrass plant response rating: 0
Barnyardgrass [6]; 500 g ai/ha, visual rating
  Barnyardgrass plant response rating: 0
morningglory; [11]
  Morningglory plant response rating (0 to 100 scale): 0
morningglory; [12]
  Plant response rating, Morningglory: 0
morningglory; [13]
  Morningglory plant response rating: 0
morningglory; [14]
  Morningglory plant response rating: 10
pigweed; [12]
  Plant response rating, Pigweed: 100
pigweed; [13]
  Pigweed plant response rating: 20
pigweed; [14]
  Pigweed plant response rating: 70
lambsquarters; [12]
  Plant response rating, Lambsquarters: 100
lambsquarters; [13]
  Lambsquarters plant response rating: 10
lambsquarters; [14]
  Lambsquarters plant response rating: 30
Ducksalad [7]
  Ducksalad plant response rating: 90
Rice [8]; 62 g ai/ha, scale 0 to 100
  Rice plant response rating: 0
Rice [8]; [15]
  Rice plant response rating: 0
Rice [8]; [16]
  Rice plant response rating: 0
Rice [8]; [17]
  Plant response rating, Rice: 15
cocklebur; [11]
  Cocklebur plant response rating (0 to 100 scale): 0
cocklebur; [12]
  Plant response rating, Cocklebur: 0
cocklebur; 125 g ai/ha, visual rating
  Cocklebur plant response rating: 10
cocklebur; 500 g ai/ha, visual rating
  Cocklebur plant response rating: 20
Wild oat; [13]
  Oat, Wild plant response rating: 20
Wild oat; [14]
  Oat, Wild plant response rating: 30
Surinam grass; [11]
  Surinam Grass plant response rating (0 to 100 scale): 0
Surinam grass; [12]
  Plant response rating, Surinam Grass: 10
Surinam grass; [13]
  Surinam Grass plant response rating: 0
Surinam grass; [14]
  Surinam Grass plant response rating: 20
corn; [11]
  Corn plant response rating (0 to 100 scale): 0
corn; [12]
  Plant response rating, Corn: 0
corn; [13]
  Corn plant response rating: 0
corn; [14]
  Corn plant response rating: 0
[9]
  Sedge, Umbrella plant response rating: 70
Ducksalad [10]; 62 g ai/ha, scale 0 to 100
  Ducksalad plant response rating: 0
Ducksalad [10]; [15]
  Ducksalad plant response rating: 70
Ducksalad [10]; [16]
  Ducksalad plant response rating: 75
Ducksalad [10]; [17]
  Plant response rating, Ducksalad: 85
